Paper PMC12549899 (Nature Communications, 2025)
Where “and” joins values, the source holds several entries; their conditions need not be identical. Identical values can stand only once. Like-named read-outs stand apart in the source and are kept apart here.

Target: T1, DrOTOP1 (Danio rerio, UniProt Q7ZWK8)
T1 construct: A previously generated codon-optimized full-length DrOTOP1[8]; (UniProt: Q7ZWK8) construct; expressed in transfected cells; host or cells: HEK-293 (CRL-1573, ATCC)
T1 sequence (Q7ZWK8 1-586): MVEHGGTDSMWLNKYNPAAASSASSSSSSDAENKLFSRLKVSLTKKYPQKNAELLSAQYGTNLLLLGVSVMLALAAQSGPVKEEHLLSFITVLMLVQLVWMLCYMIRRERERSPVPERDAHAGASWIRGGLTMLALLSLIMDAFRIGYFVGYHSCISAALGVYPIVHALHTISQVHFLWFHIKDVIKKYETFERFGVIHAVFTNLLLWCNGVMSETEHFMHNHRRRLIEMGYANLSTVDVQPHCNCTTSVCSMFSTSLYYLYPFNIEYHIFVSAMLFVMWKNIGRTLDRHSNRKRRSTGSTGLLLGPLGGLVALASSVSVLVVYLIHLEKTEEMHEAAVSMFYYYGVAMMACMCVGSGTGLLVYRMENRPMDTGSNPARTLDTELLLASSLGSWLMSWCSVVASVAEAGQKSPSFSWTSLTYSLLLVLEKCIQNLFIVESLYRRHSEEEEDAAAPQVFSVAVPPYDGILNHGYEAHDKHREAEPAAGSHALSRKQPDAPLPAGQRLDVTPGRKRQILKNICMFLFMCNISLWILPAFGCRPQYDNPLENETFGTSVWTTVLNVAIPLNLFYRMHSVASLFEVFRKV
Assay: Whole-cell patch-clamp, inhibition of acid-evoked currents, WT DrOTOP1 expressed in HEK-293 cells
Assay type: cell-based, zebrafish (Danio rerio)
Design: key to inhibition of acid-evoked current, mean (Mean 1): % inhibition = ((I2peak-I1)/I2peak)*100
Conditions: for inhibition at 200 µM: read-out: Inhibition of currents
Source text: The 50 molecules identified were individually tested by whole-cell patch-clamp electrophysiology for effects on DrOTOP1 expressed in human embryonic kidney (HEK)−293 cells. […] This approach enabled us to observe the on- and off-responses of each compound. To quantify the effect of each compound, we compared the current magnitude during compound application immediately before wash-off, to the peak inward current following its removal (Supplementary Fig. 2A).
HEK-293 cells (CRL-1573, ATCC) were cultured in DMEM (Thermofisher 11995073) containing 10% fetal bovine serum (Life Technology 16000044) and Penicillin-Streptomycin (100 I.U./mL) and (100 µg/mL), respectively. Cells were transfected with WT DrOTOP1 or mutant DrOTOP1 channels in 35 mm petri dishes, with ~ 500 ng DNA and 2 μL TransIT-LT1 transfection reagent (Mirus Bio Corporation, Cat # MIR2300) following the manufacturer’s protocol. All constructs were subcloned into a pcDNA3.1 vector that adds an N-terminal fusion tag consisting of an octahistidine tag followed by eGFP, a Gly-Thr-Gly-Thr linker and a 3C protease cleavage site ([…]) followed by WT DrOTOP1, WT mOTOP1, WT hOTOP1, or mutated DrOTOP1. Point mutations were generated via In-Fusion Cloning (Takara) using single-stranded DNA primers generated through IDT and sequence confirmed by Sanger sequencing (GeneWiz).
Whole-cell patch-clamp recording was performed as previously described[6],[22],[25]. Recordings were made with an Axopatch 200B amplifier, digitized with a Digidata 1322a 16-bit data acquisition system, acquired with pClamp 8.2 and analyzed with Clampfit 10 (Molecular Devices). Recordings were sampled at 5 kHz and filtered at 1 kHz. Patch Pipettes with resistance of […] were fabricated from borosilicate glass, and only recordings with a giga-Ohm seal were used in analysis. Membrane potential was held at −80 mV for the duration of recordings. At the beginning of recordings and between, cells were washed with Tyrode’s solution (see below). Once a giga-Ohm seal was reached, cells were lifted and placed in front of microcapillary tubes controlled by a Fast-Step perfusion system (Warner Instruments) so that extracellular solutions could be rapidly exchanged during each experiment.
Standard Tyrode’s solution consisted of 145 mM NaCl, 5 mM KCl, MgCl2, 2 mM CaCl2, 20 mM D-Glucose, and 10 mM HEPES (for pH 7.4). All other extracellular patch-clamp solutions contained 160 mM NMDG-Cl, 2 mM CaCl2, and the following buffers: 10 mM HEPES (for pH 7.4), 10 mM MES (for pH 6.5-5.5), 10 mM CHES for pH 10, and 10 mM HomoPIPES for (pH 5.0). pH adjusted with HCl. […] The pipette contained intracellular solution made up of 120 mM Cs-aspartate, 15 mM CsCl, 2 mM Mg-ATP, 5 mM EGTA, 2.4 mM CaCl2 (100 nM free Ca^2+), and 10 mM HEPES with a pH of 7.3. All extracellular solution osmolarity was adjusted to 300 mOsm and intracellular osmolarity was adjusted to 290 mOsm.
All data are presented as mean ± SEM unless otherwise noted, and each data point represents an independent replicant. Inhibition of compounds was quantified as ((I2peak-I1)/(I2peak))*100, where I1 is the current immediately before wash-off and I2peak is the maximum recovered current (Supplementary Fig. 2). Hill coefficients were determined by the following equation: Y = Bmax*X^h/(Kd^h + X^h).

[1] = 10 µM, pH 5, WT DrOTOP1, single cells
[2] = 10 µM, pH 6, WT DrOTOP1, single cells
[3] = 30 µM, pH 5, WT DrOTOP1, single cells
[4] = 30 µM, pH 6, WT DrOTOP1, single cells
[5] = 100 µM, pH 5, WT DrOTOP1, single cells
[6] = 100 µM, pH 6, WT DrOTOP1, single cells
[7] = 200 µM, pH 5.5, WT DrOTOP1, dose-response, single cells
[8] = 300 µM, pH 5.5, WT DrOTOP1, single cells
[9] = HEK293, pH 5, 30 µM, pH 5, WT DrOTOP1, single cells
[10] = HEK293, pH 5.5, 200 µM, pH 5.5, WT DrOTOP1, dose-response, single cells
[11] = HEK293, pH 5.5, 300 µM, pH 5.5, WT DrOTOP1, single cells
[12] = HEK293, pH 6, 10 µM, pH 6, WT DrOTOP1, single cells
[13] = HEK293, pH 6, 30 µM, pH 6, WT DrOTOP1, single cells
[14] = HEK293, pH 6, 100 µM, pH 6, WT DrOTOP1, single cells

Row | Structure (SMILES) | Inhibition of currents [1] | Inhibition of currents [2] | Inhibition of currents [3] | Inhibition of currents [4] | Inhibition of currents [5] | Inhibition of currents [6] | Inhibition of currents [7] | Inhibition of currents [8] | inhibition at 30 µM [9] | inhibition at 200 µM [10] | inhibition at 300 µM [11] | inhibition at 10 µM [12] | inhibition at 30 µM [13] | inhibition at 100 µM [14] | Hill coefficient (pH 5.0, WT DrOTOP1) | IC50 (pH 5.0, WT DrOTOP1) | Hill coefficient (pH 5.5, WT DrOTOP1) | IC50 (pH 5.5, WT DrOTOP1) | Hill coefficient (pH 6.0, WT DrOTOP1) | IC50 (pH 6.0, WT DrOTOP1) | other results
1 | O=C(/C(=N\O)c1ccccc1)c1ccccc1 [C11, benzil monoxime] | 4.424% and 3.103% | 7.181% and 5.566% and 5.627% | 24.2292% and 16.076% | 21.9002% and 19.6399% and 27.9569% | 50.6107% and 59.4827% and 56.6039% and 73.4375% | 58.9165% and 51.9948% and 54.7438% and 59.958% | 92.006% and 94.7798% and 86.5734% | 100.665% and 98.5727% and 97.2447% | 16.2% | 96.6% | 102% | 5.56% | 19% | 68.6% | 1.88 | 75.2 µM | 2.2 and 2.21 | 76 µM and 76.3 µM | 1.67 | 71.5 µM | Inhibition of currents (10 µM, pH 5.5, WT DrOTOP1, single cells or mean): 3.913% and 2.872% and 1.269% and 1.559%; Inhibition of pH 5.5-induced currents, screen 1 (200 µM compound, HEK-293 cells expressing DrOTOP1, Vm -80 mV, values of single cells): nearly fully inhibited; Inhibition of currents (200 µM, pH 5, WT DrOTOP1, single cells): 88.3451% and 83.853%; Inhibition of currents (200 µM, pH 6, WT DrOTOP1, single cells): 84.9844% and 81.9304% and 93.4599%; Inhibition of currents (300 µM, pH 5, WT DrOTOP1, single cells): 96.0707% and 96.7562%; Inhibition of currents (300 µM, pH 6, WT DrOTOP1, single cells): 97.5242% and 103.48%; inhibition at 10 µM (HEK293, pH 5, 10 µM, pH 5, WT DrOTOP1, single cells): 3.81%; inhibition at 200 µM (HEK293, pH 5, 200 µM, pH 5, WT DrOTOP1, single cells): 80.8%; inhibition at 300 µM (HEK293, pH 5, 300 µM, pH 5, WT DrOTOP1, single cells): 101%; inhibition at 200 µM (HEK293, pH 6, 200 µM, pH 6, WT DrOTOP1, single cells): 89.5%; inhibition at 300 µM (HEK293, pH 6, 300 µM, pH 6, WT DrOTOP1, single cells): 99.8%
2 | C=C(C)COc1ccccc1NC(=O)c1nc[nH]c1C [C2.2] | 57.3692% and 44.5762% and 37.4476% and 30.9804% and 33.0274% | 62.6907% and 69.8462% and 72.5518% and 60.5453% | 79.1499% and 75.7339% and 78.9474% | 89.6104% and 92.0062% | 98.8642% and 100.372% | 101.656% and 100.935% and 99.4036% | 99.9505% and 99.4475% and 98.9119% | 99.8351% and 99.4122% and 98.63% | 79.1% | 100% | 99.9% | 62.3% | 80.7% | 100% | 1.53 | 12.6 µM | 1.52 and 1.5 | 6.67 µM | 1.25 | 5.99 µM and 5.97 µM | Inhibition of currents (0.1 µM, pH 5.5, WT DrOTOP1, single cells): 2.61% and 0.5081% and 0.05491%; Inhibition of currents (0.3 µM, pH 5.5, WT DrOTOP1, single cells): 3.209% and 3.843%; Inhibition of currents (1 µM, pH 5, WT DrOTOP1, single cells): 3.034% and 6.744% and 2.835%; Inhibition of currents (1 µM, pH 5.5, WT DrOTOP1, single cells): 3.496% and 5.882% and 11.0667%; Inhibition of currents (1 µM, pH 6, WT DrOTOP1, single cells): 7.93% and 17.0523% and 15.485%; Inhibition of currents (3 µM, pH 5.5, WT DrOTOP1, single cells): 21.7626% and 20.6603%; Inhibition of currents (30 µM, pH 5.5, WT DrOTOP1, single cells): 91.4446% and 86.3672% and 87.3001% and 85.4679%; Inhibition of pH 5.5-induced currents, screen 2 (200 µM compound, HEK-293 cells expressing DrOTOP1, Vm -80 mV, values of single cells, FDA 1-3 = FDA-approved drugs): fully blocked; inhibition at 100 µM (HEK293, pH 5, 100 µM, pH 5, WT DrOTOP1, single cells): 99.1%; inhibition at 0.3 µM (HEK293, pH 5.5, 0.3 µM, pH 5.5, WT DrOTOP1, single cells): 2.64%; inhibition at 3 µM (HEK293, pH 5.5, 3 µM, pH 5.5, WT DrOTOP1, single cells): 17%; inhibition at 30 µM (HEK293, pH 5.5, 30 µM, pH 5.5, WT DrOTOP1, single cells): 88.3%; inhibition at 100 µM (HEK293, pH 5.5, 100 µM, pH 5.5, WT DrOTOP1, single cells): 99.4%; Mean, Fig 5N (WT + C2.2, n=8): 31.97; inhibition of acid-evoked current, mean (Mean 1) (WT DrOTOP1, Supp. Fig 5E stats): 99.31; inhibition of acid-evoked current, mean (Mean 1) (WT DrOTOP1, Supp. Fig 5F stats): 65.72
